The values below come from US10117845B2, “Retinal derivatives and methods for the use thereof for the treatment of visual disorders” (University of Washington, priority 2004, dated 2018).

Assay [1] has as its system Lrat−/− mice. As to the kind of experiment: Chromophore levels in eyes of Lrat−/− mice after all-trans-retinoid isoforms or 9-cis-retinyl succinate (Example 4). The settings on record: 5 mg by oral gavage in canola oil (40 mg/ml), measured after 3 days; FIG. 6. In kind it is in vivo, mouse. As for the experimental part:
Levels of chromophore (opsin/retinal complexes) were measured in the eyes of mice after dosing with all-trans-retinoid isoforms or 9-cis-retinyl succinate. All-trans-retinyl-palmitate, all-trans-retinyl acetate, all-trans-retinal (vitamin A aldehyde), all-trans-retinol (vitamin A), all-trans-retinyl succinate and 9-cis-retinyl succinate were administered to Lrat−/− mice by oral gavage. Five milligrams of the retinoid isoforms or 9-cis-retinyl succinate were administered in 100% canola oil at a concentration of 40 mg/ml. After 3 days, chromophore levels (as all-trans-retinal oximes or 9-cis-retinal oximes) were determined as described previously. See Van Hooser et al., J. Biol. Chem. 277:19173-182 (2002); Van Hooser et al, Proc. Natl. Acad. Sci. USA 97:8623-28 (2000); Maeda et al., J. Neurochem. 85:944-56 (2003). All reactions involving retinoids were carried out under dim red light.

Assay [2] has as its system Lrat−/− mice. Put plainly: 9-cis-RAL oxime levels in eyes of Lrat−/− mice after single or multiple oral doses (Example 3). In kind it is in vivo, mouse. How it is done: Levels of 9-cis-RAL oximes (measured as syn- and anti-9-cis-retinyl aldehyde) in the eyes of Lrat−/− mice after a single dose or multiple doses of 9-cis-retinyl-acetate (9-cis-R-Ac). Doses of 9-cis-R-Ac were administered to Lrat−/− mice by oral gavage in vegetable oil (100% canola oil) in a volume of 500 ill (2.5 mg/ml). The mice weighed about 30-50 g. After 3 days, 9-cis-RAL oximes levels were determined by HPLC. Briefly, all experimental procedures related to extraction, derivatization, and separation of retinoids from dissected mouse eyes were carried out as described previously. See Van Hooser et al., J. Biol. Chem. 277:19173-182 (2002); Van Hooser et al., Proc. Natl. Acad. Sci. USA 97:8623-28 (2000); Maeda et al., J. Neurochem. 85:944-56 (2003). All reactions involving retinoids were carried out under dim red light.
Referring to FIG. 5a, the level of 9-cis-RAL in Lrat−/− in mouse eyes after a varying dose of 9-cis-R-Ac is shown. Peaks were identified by retention time and UV spectra and compared to standards. The spike around 19 min resulted from changes in the solvent composition. Retinoid analysis was performed on an HP1100 HPLC equipped with a diode array detector and HP Chemstation (A.07.01) software, allowing identification of retinoid isomers according to their specific retention time and absorption maxima. […]

Assay [3] deals with LRAT−/− mice (LCA mouse model). Put plainly: Retinoids in eyes of gavaged LRAT−/− mice, analyzed by HPLC (Example 1). In kind it is in vivo. As for the experimental part: […]. HPLC chromatogram showing retinoid elution in treated and control mice eye and liver tissue. FIG. 1A. Eyes from dark adapted LRAT−/− mouse. FIG. 1B. Eyes from dark-adapted LRAT−/− mouse gavaged with 5 mg all-trans-retinyl palmitate 2 days prior. FIG. 1C. Eyes from dark-adapted LRAT−/− mouse gavaged with 5 mg all-trans-retinyl acetate 2 days prior. FIG. 1D. Eyes from dark-adapted LRAT−/− mouse gavaged with 6.5 mg 9-cis-retinyl acetate 3 days prior. FIG. 1E. Liver tissue from dark adapted LRAT−/− mouse. FIG. 1F. Liver tissue from dark-adapted LRAT−/− mouse gavaged with 5 mg all-trans-retinyl palmitate 2 days prior. FIG. 1G. Liver tissue from dark-adapted LRAT−/− mouse gavaged with 5 mg all-trans-retinyl acetate 2 days prior. FIG. 1H. Liver tissue from dark-adapted LRAT−/− mouse gavaged with 6.5 mg 9-cis-retinyl acetate 3 days prior.
9-cis-retinyl ester restores visual pigment in an LCA mouse model. LRAT−/− mice were gavaged with all-trans-retinyl palmitate, all-trans-retinyl acetate or 9-cis-retinyl acetate as indicated in the legend to FIG. 1A-1H. Following treatment, retinoids were extracted from the eye and liver, and analyzed by HPLC. […] 9-cis-retinyl ester restores visual pigment in approximately 5 hr (FIG. 2), while excess of retinoid is removed and metabolized (as illustrated for 9-cis-retinol).

Assay [4] has as its system Lrat−/− mice. As to the kind of experiment: Bioavailability comparison of oral 9-cis-retinaldehyde and 9-cis-retinyl acetate, by chromophore levels in LRAT−/− mice (Example 5). In kind it is in vivo, mouse. The settings on record: low (10 μmoles) and high (15 μmoles) doses, effect more pronounced at low dose, FIG. 7. As for the experimental part: A comparison of the bioavailability of orally delivered 9-cis-retinaldehyde and 9-cis-retinyl acetate in an LRAT−/− model. 9-cis-retinaldehyde and 9-cis-retinyl acetate were administered at low (10 μmoles) and high (15 μmoles) doses to LRAT−/− mice. Chromophore levels (as 9-cis-retinal oximes) were determined as described previously. See Van Hooser et at, J. Biol. Chem. 277:19173-182 (2002); Van Hooser et al., Proc. Natl. Acad. Sci. USA 97:8623-28 (2000); Maeda et al., J. Neurochem. 85:944-56 (2003). All reactions involving retinoids were carried out under dim red light.

For `CC1=C(/C=C/C(C)=C\C=C\C(C)=C\COC(=O)CCC(=O)O)C(C)(C)CCC1` [9-cis-retinyl succinate], the “restoration of chromophore levels (as all-trans-retinal oximes or 9-cis-retinal oximes)” value in the assay with Lrat−/− mice [1] is on record as “restored chromophore levels”.
In the case of `CC(=O)OC/C=C(C)/C=C/C=C(C)\C=C\C1=C(C)CCCC1(C)C` [9-cis-retinyl acetate], in the assay with Lrat−/− mice [2] (Lrat−/− mouse eyes after 10 gavages, FIG. 5b), the “maximal level of isorhodopsin (as 9-cis-retinal oximes)” value was “comparable to the level of rhodopsin in wildtype (WT) mice”. For the same compound, in the assay on Lrat−/− mice [2] (single varying dose by oral gavage in canola oil, measured after 3 days, FIG. 5a), the “dose at which levels of 9-cis-RAL per eye leveled off” value lay in the range of 4 to 6 µmol. Also, the “presence of syn-9-cis-retinal oxime in eyes (formation of the chromophore)” value in assay [3] (dark-adapted LRAT−/− mouse gavaged with 6.5 mg 3 days prior, FIG. 1D) is listed as “restored the presence of syn-9-cis-retinal oxime”. Further, in assay [3] (eye 9-cis-retinal oximes time course, FIG. 2), the “time in which visual pigment is restored” value is on record as “approximately 5 hr”. For the same compound, the “restoration of chromophore levels (as 9-cis-retinal oximes), compared with 9-cis-retinaldehyde” value in the assay with Lrat−/− mice [4] is given as “more efficiently restores chromophore levels than 9-cis-retinaldehyde”.
